Measured values: BindingDB's records for doi:10.1016/j.bmcl.2011.06.070 (Novartis Institutes For Biomedical Research, 2011)

Experiment: Antagonist activity at CXCR3 in rat leukocytes assessed as inhibition of ITAC-induced cell migration by flow cytometry

Row | SMILES | IC50 [nM]
1 | O=C([C@@H]1C=C2c3cccc4[nH]cc(c34)C[C@H]2N(C(=O)Nc2ccccc2)C1)N1CCOCC1 | 78
2 | O=C([C@@H]1C=C2c3cccc4[nH]cc(c34)C[C@H]2N(C(=O)Nc2ccccc2)C1)N1CCCC1 | 19
3 | O=C([C@@H]1C=C2c3cccc4[nH]cc(c34)C[C@H]2N(C(=O)Nc2ccccc2)C1)N1CCCCC1 | 13
4 | CCN(CC)C(=O)[C@@H]1C=C2c3cccc4[nH]cc(c34)C[C@H]2N(C(=O)Nc2ccccc2)C1 [(6aR,9R)-N9,N9-diethyl-N7-phenyl-6,6a,8,9-tetrahydroindolo[4,3-fg]quinoline-7,9(4H)-dicarboxamide] | 74
